Results from patent publication US6121320A, “Combination anti-leukemic therapy by utilizing suramin and biologic response modifiers” (The University of Kentucky Research Foundation, priority 1998, dated 2000).
Read-outs that look alike come from different tables or passages of the source. Blank lines part the entries; values can stand above or below the molecule they belong to.

Legend:
HL-60 [1] = test: HL-60 leukemia cell proliferation (MTT), single agents and combinations, CI-isobologram analysis; type: cell-based, human
Procedure: (§1) Assays of proliferation consist of cell proliferation (3H-thymidine) assay as previously described or the MTT assay after 3-5 days of exposure to the agents. Cell proliferation is assayed using a modification of the original MTT calorimetric assay described by Mosmann (53). To better delineate the issues of proliferation (and inhibition thereof) versus differentiation, which is induced by certain of the agents being proposed for testing, an alternative method would utilize simple cell counting (Courter, Inc.) of aliquots at 3 and 5 days of continuous exposure with concomitant analysis of induced differentiation by cell morphology (NBT-positive) conducted. The percentage of differentiated cells in liquid culture determined by the NBT reduction test (as described, (54) allows for an estimate of the total number of cells which are still blast cells and therefore considered capable of continued leukemogenic growth. The most promising combinations are used to examine de novo acute myeloid leukemia patient samples in like fashion.
The antigrowth factor activity of suramin was tested alone and in combination with all-trans retinoic acid (ATRA) against the human leukemic line HL-60 or its ATRA resistant subclone, HL-60R, to assess if an agent with the ability to interrupt putative autocrine driven leukemic cell growth could reestablish sensitivity to ATRA. […] Synergy or antagonism between combinations was then assessed using a combination-index CI-isobolo gram method.
Cell lines chosen for this study include the ATRA sensitive human acute leukemia HL-60 and the ATRA resistant subclone, HL-60R. While originally described as an acute promyelocytic cell line, more recent work categorizes this line as an acute myelogenous leukemia. The sensitivity of these cell lines to ATRA and suramin alone as single agents has been assessed. […] The assays of proliferation consist of cell proliferation after 3-5 days of exposure to the agents. Cell proliferation is assayed using a modification of the original MTT calorimetric assay described by Mossman, et al. In similar fashion, a dose response curve to cytosine arabinoside has been generated. Using the IC50 values for each agent alone allows selection of reasonable drug combinations. The data software program, "Dose effect analysis with microcomputers" (BioSoft, Inc.) developed by Dr. Chou, et al. is utilized. This computer analysis program allows the assessment of drug combinations for synergistic, additive, or antagonistic interactions.

[2] = test system: acute promyelocytic leukemia (APL); conditions: cited from earlier work
rhGM-CSF = rhGM-CSF (Homo sapiens, UniProt P04141); test: Competition for nucleotide photoprobe incorporation into rhGM-CSF; type: binding
Mo7E = test: Proliferation of GM-CSF dependent Mo7E cells; type: cell-based, human; conditions: read-out: Half-maximal inhibition of Mo/7E growth (GM-CSF dependent)
Description: control. Similarly, cell proliferating of GM-CSF
dependent (Mo7E) and autonomously proliferation (GM-CSF
independent) human leukemia cells (HL-60) gave half-
maximal inhibition of growth. Results are expressed as […]

HL-60R = HL-60R (ATRA resistant subclone) proliferation (MTT), single agents and combinations; type: cell-based, human
Procedure: as §1, with “fashion. […]” for “fashion.”
Cell lines chosen for this study include the ATRA sensitive human acute leukemia HL-60 and the ATRA resistant subclone, HL-60R. […] The sensitivity of these cell lines to ATRA and suramin alone as single agents has been assessed. […]

follicular lymphoma = conditions: evaluable follicular lymphoma patients; cited from earlier work
HL-60 [3] = conditions: HL-60 in vitro, reference 48; cited from earlier work
NB4 = test: Activity against NB4 leukemia cells; type: cell-based, human
Procedure: While originally described as an acute promyelocytic cell line, more recent work categorizes this line as an acute myelogenous leukemia.
as §1

[4] = Homo sapiens, HL-60, 120 h, read-out: Fractional Inhibition
[5] = photoprobe incorporation into rhGM-CSF compared to control, read-out: Half-maximal inhibition of nucleotide binding
[6] = Homo sapiens, HL-60, autonomously proliferating cells, read-out: Half-maximal inhibition of HL-60 growth (GM-CSF independent)

rhGM-CSF, sequence (P04141 18-144): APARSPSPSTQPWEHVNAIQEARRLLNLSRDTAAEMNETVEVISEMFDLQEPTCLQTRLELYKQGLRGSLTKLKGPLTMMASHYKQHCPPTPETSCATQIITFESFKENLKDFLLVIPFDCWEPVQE

Compound: CC1=C(/C=C/C(C)=C/C=C/C(C)=C/C(=O)O)C(C)(C)CCC1 [ATRA, all-trans retinoic acid]
m (slope of the median-effect plot) (HL-60 [1]; HL60, 5 days exposure): .2729
IC50 (HL-60 [1]; Homo sapiens, HL-60, 120 h, read-out: Dm (antilog of x-intercept of the median-effect plot, the potency (IC50))): 0.00022 µM
inhibition at 0.001 µM (HL-60 [1]; [4]): 56.1%
inhibition at 0.01 µM (HL-60 [1]; [4]): 77.7%
inhibition at 0.02 µM (HL-60 [1]; [4]): 79%
inhibition at 0.04 µM (HL-60 [1]; [4]): 82.3%
inhibition at 0.08 µM (HL-60 [1]; [4]): 82.6%
inhibition at 0.16 µM (HL-60 [1]; [4]): 83.5%
Patients resistant to ATRA at diagnosis or relapsing ([2]; APL): 30-40%
Complete remission rate ([2]; ATRA as a single agent in APL): ≥ 70%
Patients with long term remissions ([2]; ATRA treatment followed by chemotherapy): 60%
Patients with ATRA syndrome ([2]; subset of APL patients, fever, respiratory distress, chest x-ray abnormalities, weight gain): 5-20%

IC50 (rhGM-CSF; [5]): 5 µM
IC50 (HL-60 [1]; [6]): 175 µM
Compound: O=C(Nc1cccc(C(=O)Nc2ccc(S(=O)(=O)O)c3cc(S(=O)(=O)O)cc(S(=O)(=O)O)c23)c1)Nc1cccc(C(=O)Nc2ccc(S(=O)(=O)O)c3cc(S(=O)(=O)O)cc(S(=O)(=O)O)c23)c1 [NF023]
IC50 (Mo7E; Homo sapiens, Mo7e): 102 µM

IC50 (rhGM-CSF; [5]): 1.5 µM
IC50 (HL-60 [1]; autonomously proliferating cells, read-out: Half-maximal inhibition of HL-60 growth (GM-CSF independent)): 6 µM
Compound: O=C(Nc1cc(C(=O)Nc2ccc(S(=O)(=O)O)cc2)cc(C(=O)Nc2ccc(S(=O)(=O)O)cc2)c1)Nc1cc(C(=O)Nc2ccc(S(=O)(=O)O)cc2)cc(C(=O)Nc2ccc(S(=O)(=O)O)cc2)c1 [NF110]
Enhanced activity (HL-60R; against HL-60R, relative to suramin): 5-10 fold
Enhanced activity (HL-60 [1]; against HL-60, relative to suramin): 5-10 fold
IC50 (Mo7E): 52 µM

Compound: Cc1ccc(C(=O)Nc2ccc(S(=O)(=O)O)c3cc(S(=O)(=O)O)cc(S(=O)(=O)O)c23)cc1NC(=O)c1cccc(NC(=O)Nc2cccc(C(=O)Nc3cc(C(=O)Nc4ccc(S(=O)(=O)O)c5cc(S(=O)(=O)O)cc(S(=O)(=O)O)c45)ccc3C)c2)c1 [suramin]
Inhibition of growth, in words (HL-60R; HL-60R): active
IC50 (rhGM-CSF): 2.5 µM
Patients achieving partial remission (follicular lymphoma): five of nine
m (slope of the median-effect plot) (HL-60 [1]; HL60, 5 days exposure): 1.725
Inhibition of growth, in words (HL-60 [1]; HL-60): active
IC50 (HL-60 [1]; Homo sapiens, HL-60, 120 h, HL60, 5 days exposure, doses printed in μM, read-out: Dm (antilog of x-intercept of the median-effect plot, the potency (IC50))): 38.7 µM
inhibition at 3.5 µM (HL-60 [1]; Homo sapiens, HL-60, 120 h, suramin 3.5 μM, HL60, 5 days exposure, read-out: Fractional Inhibition): 2%
inhibition at 7 µM (HL-60 [1]; Homo sapiens, HL-60, 120 h, suramin 7.0 μM, HL60, 5 days exposure, read-out: Fractional Inhibition): 4.7%
inhibition at 14 µM (HL-60 [1]; Homo sapiens, HL-60, 120 h, suramin 14.0 μM, HL60, 5 days exposure, read-out: Fractional Inhibition): 9.3%
inhibition at 28 µM (HL-60 [1]; Homo sapiens, HL-60, 120 h, suramin 28.0 μM, HL60, 5 days exposure, read-out: Fractional Inhibition): 41.9%
inhibition at 56 µM (HL-60 [1]; Homo sapiens, HL-60, 120 h, suramin 56.0 μM, HL60, 5 days exposure, read-out: Fractional Inhibition): 67.8%
IC50 (HL-60 [1]; [6]): 38 µM
IC50 (Mo7E; Homo sapiens, Mo7e): 68 µM
Suppression of proliferation, in words (HL-60 [3]): strongly suppress
Activity, in words (NB4): active
